Assay results taken from patent publication US12145939B2, “Substituted [1,2,4]triazolo[4,3-a]pyrazines as ion channel modulators” (PRAXIS PRECISION MEDICINES, INC., priority 2019, dated 2024).

target: T1, human NaV1.6 (hNaV1.6) (Homo sapiens, UniProt Q9UQD0); assay: Modulation of late sodium current (INaL) at hNaV1.6, PatchXpress electrophysiology; format: cell-based; conditions: HEK293, HEK-293 cells expressing recombinant human NaV 1.6, late current evoked by 300 nM ATX-II, read-out: NaV 1.6 Assay Data (percent inhibition of INaL at hNaV1.6)
T1 construct: expressed in transfected cells; host or cells: HEK-293
Protocol: Functional characterization of exemplary compounds to modulate INaL expressed by the NaV1.6 voltage-gated sodium channel was accomplished using the PatchXpress™ high throughput electrophysiology platform (Molecular Devices, Sunnyvale, CA). HEK-293 cells expressing recombinant, human NaV1.6 (hNaV1.6) were grown in DMEM/high-glucose Dulbecco's modified, 10% FBS, 2 mM sodium pyruvate, 10 mM HEPES and 400 μg/mL G418. Cells were grown to 50%-80% confluency prior to harvesting. Trypsinized cells were washed, allowed to recover for 1 hour and then resuspended in extracellular recording solution at a concentration of 1×10^6 cells/ml. The onboard liquid handling facility of the PatchXpress was used for dispensing cells and applying test compounds. NaV late currents were evoked by the application of 300 nM ATX-II. INaL was evoked by depolarizing pulses to 0 mV for 200 ms from a non-inactivating holding potential (e.g., −120 mV) at a frequency of 0.1 Hz. INaL amplitude and stability were determined by analyzing the mean current amplitude over the final 20 ms of the test pulse. Following steady state block with exemplary compounds (e.g., as described herein), a Na+ free solution containing an impermeant cation (e.g., Choline or NDMG) was added to confirm the identity of the sodium current. Percent steady-state inhibition of INaL was calculated as: […], where INaL_compound and INaL_control represent INaL recorded in the presence or absence of compound, respectively.
Results from this assay relating to percent inhibition of INaL at hNaV1.6 (measured using a procedure similar to described above but using HEK-293 cells expressing recombinant, human NaV 1.6 (h NaV 1.6) at 1 μM are summarized in Table 1 below. In this table, “A” indicates inhibition of less than 30%; “B” indicates inhibition of between about 30% to about 70%; and “C” indicates inhibition of greater than 70%. “N/A” indicates not available.

T1 sequence (Q9UQD0 whole entry): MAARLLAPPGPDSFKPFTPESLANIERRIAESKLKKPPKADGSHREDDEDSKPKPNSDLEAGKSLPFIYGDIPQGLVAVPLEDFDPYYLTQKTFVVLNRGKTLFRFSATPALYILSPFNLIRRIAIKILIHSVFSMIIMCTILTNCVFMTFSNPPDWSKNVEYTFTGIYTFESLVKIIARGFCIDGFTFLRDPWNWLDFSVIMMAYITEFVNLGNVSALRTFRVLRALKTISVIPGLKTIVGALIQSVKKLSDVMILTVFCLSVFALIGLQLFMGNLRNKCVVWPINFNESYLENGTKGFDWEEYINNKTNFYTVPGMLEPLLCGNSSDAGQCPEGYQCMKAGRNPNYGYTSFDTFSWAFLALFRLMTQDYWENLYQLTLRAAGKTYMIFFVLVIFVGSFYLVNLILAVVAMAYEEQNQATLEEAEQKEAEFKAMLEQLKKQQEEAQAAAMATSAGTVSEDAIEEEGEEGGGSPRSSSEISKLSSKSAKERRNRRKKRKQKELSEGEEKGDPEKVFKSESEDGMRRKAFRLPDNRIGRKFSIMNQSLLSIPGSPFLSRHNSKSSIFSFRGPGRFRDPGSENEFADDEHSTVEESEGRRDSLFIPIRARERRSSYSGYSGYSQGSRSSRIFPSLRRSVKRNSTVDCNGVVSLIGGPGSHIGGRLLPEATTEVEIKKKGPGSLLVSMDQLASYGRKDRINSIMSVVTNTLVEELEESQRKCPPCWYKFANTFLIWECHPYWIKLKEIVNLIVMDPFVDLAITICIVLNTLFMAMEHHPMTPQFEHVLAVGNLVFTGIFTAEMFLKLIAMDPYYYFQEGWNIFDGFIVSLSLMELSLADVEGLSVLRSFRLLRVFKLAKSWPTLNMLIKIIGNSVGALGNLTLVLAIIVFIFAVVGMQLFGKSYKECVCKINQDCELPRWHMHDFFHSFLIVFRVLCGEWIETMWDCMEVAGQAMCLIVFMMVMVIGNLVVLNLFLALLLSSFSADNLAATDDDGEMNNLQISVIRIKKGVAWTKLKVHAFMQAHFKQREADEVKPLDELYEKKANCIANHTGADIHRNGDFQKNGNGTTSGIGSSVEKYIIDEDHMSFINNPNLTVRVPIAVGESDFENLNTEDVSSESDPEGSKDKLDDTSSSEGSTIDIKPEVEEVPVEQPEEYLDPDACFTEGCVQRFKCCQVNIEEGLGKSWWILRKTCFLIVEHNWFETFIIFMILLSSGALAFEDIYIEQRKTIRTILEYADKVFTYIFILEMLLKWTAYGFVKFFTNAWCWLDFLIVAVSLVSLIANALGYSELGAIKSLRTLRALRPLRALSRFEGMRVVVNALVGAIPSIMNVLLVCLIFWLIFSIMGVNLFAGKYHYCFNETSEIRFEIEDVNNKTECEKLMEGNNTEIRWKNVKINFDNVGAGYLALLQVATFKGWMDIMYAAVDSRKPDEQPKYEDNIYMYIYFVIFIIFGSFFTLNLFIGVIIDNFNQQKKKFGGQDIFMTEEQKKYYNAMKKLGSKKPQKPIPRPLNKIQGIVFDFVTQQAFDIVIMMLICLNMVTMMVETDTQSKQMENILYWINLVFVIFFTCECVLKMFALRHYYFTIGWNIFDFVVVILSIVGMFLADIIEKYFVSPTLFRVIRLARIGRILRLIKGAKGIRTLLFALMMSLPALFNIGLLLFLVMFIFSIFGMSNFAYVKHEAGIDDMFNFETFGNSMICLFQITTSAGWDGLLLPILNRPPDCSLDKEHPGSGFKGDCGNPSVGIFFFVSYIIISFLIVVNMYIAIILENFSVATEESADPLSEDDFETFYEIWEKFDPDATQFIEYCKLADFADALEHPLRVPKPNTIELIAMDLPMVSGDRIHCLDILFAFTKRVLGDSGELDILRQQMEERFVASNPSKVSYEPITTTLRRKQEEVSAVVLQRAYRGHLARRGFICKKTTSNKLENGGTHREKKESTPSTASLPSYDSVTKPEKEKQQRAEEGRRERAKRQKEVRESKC

Compared with `COC(C)(C)c1nnc2cnc(-c3ccc(OC(C)C(F)(F)F)nc3)cn12` (racemic) [Compound II-6, 3-(1-methoxy-1-methyl-ethyl)-6-[6-[rac-(1R)-2,2,2-trifluoro-1-methyl-ethoxy]-3-pyridyl]-[1,2,4]triazolo[4,3-a]pyrazine], `CO[C@H](C)c1nnc2cnc(-c3ccc(OC(C)(C)C(F)(F)F)nc3)cn12` (single isomer, unassigned) [Compound I-9] is higher in inhibition at 1 µM: < 30% for the first, 30 to 70% for the second.

Compared with `CO[C@H](C)c1nnc2cnc(-c3cnc(OC(C)(C)C(F)(F)F)c(F)c3)cn12` (single isomer, unassigned) [Compound I-1], `CO[C@@H](C)c1nnc2cnc(-c3cnc(OC(C)(C)C(F)(F)F)c(F)c3)cn12` (single isomer, unassigned) [Compound I-2] is lower in inhibition at 1 µM: > 70% for the first, 30 to 70% for the second.

`CO[C@H](C)c1nnc2cnc(-c3cnc(OC4(C(F)(F)F)CCC4)c(F)c3)cn12` (single isomer, unassigned) [Compound I-3] and `CO[C@@H](C)c1nnc2cnc(-c3cnc(OC4(C(F)(F)F)CCC4)c(F)c3)cn12` (single isomer, unassigned) [Compound I-4] fall in the same range of inhibition at 1 µM: 30 to 70% for the first, 30 to 70% for the second.

`CO[C@@H](C)c1nnc2cnc(-c3ccc(OC4(C(F)(F)F)CCC4)nc3)cn12` (single isomer, unassigned) [Compound I-5] and `CO[C@H](C)c1nnc2cnc(-c3ccc(OC4(C(F)(F)F)CCC4)nc3)cn12` (single isomer, unassigned) [Compound I-6] fall in the same range of inhibition at 1 µM: 30 to 70% for the first, 30 to 70% for the second.

`CO[C@@H](C)c1nnc2cnc(-c3ccc(OC(C)(C)C(F)(F)F)nc3)cn12` (single isomer, unassigned) [Compound I-10] and `CCO[C@@H](C)c1nnc2cnc(-c3ccc(OC(C)(C)C(F)(F)F)nc3)cn12` [Compound I-8, (S)-3-(1-ethoxyethyl)-6-(6-((1,1,1-trifluoro-2-methylpropan-2-yl)oxy)pyridin-3-yl)-[1,2,4]triazolo[4,3-a]pyrazine] fall in the same range of inhibition at 1 µM: 30 to 70% for the first, 30 to 70% for the second.

`CO[C@H](C)c1nnc2cnc(-c3cnc(O[C@H](C4CC4)C(F)(F)F)c(F)c3)cn12` (single isomer, unassigned) [Compound I-15] and `CO[C@@H](C)c1nnc2cnc(-c3cnc(O[C@H](C4CC4)C(F)(F)F)c(F)c3)cn12` (single isomer, unassigned) [Compound I-16] fall in the same range of inhibition at 1 µM: 30 to 70% for the first, 30 to 70% for the second.

First: CO[C@H](C)c1nnc2cnc(-c3cnc(O[C@@H](C4CC4)C(F)(F)F)c(F)c3)cn12 (single isomer, unassigned) [Compound I-17]
Second: CO[C@@H](C)c1nnc2cnc(-c3cnc(O[C@@H](C4CC4)C(F)(F)F)c(F)c3)cn12 (single isomer, unassigned) [Compound I-18]
The inhibition at 1 µM of the first is lower: < 30% for the first, 30 to 70% for the second.

`CO[C@@H](C)c1nnc2cnc(-c3ccc(O[C@@H](C4CC4)C(F)(F)F)nc3)cn12` (single isomer, unassigned) [Compound I-21] and `CO[C@H](C)c1nnc2cnc(-c3ccc(O[C@@H](C4CC4)C(F)(F)F)nc3)cn12` (single isomer, unassigned) [Compound I-22] cannot be ordered by inhibition at 1 µM: < 30% for the first, < 30% for the second.

`CO[C@@H](C)c1nnc2cnc(-c3ccc(O[C@H](C4CC4)C(F)(F)F)nc3)cn12` (single isomer, unassigned) [Compound I-23] and `CO[C@H](C)c1nnc2cnc(-c3ccc(O[C@H](C4CC4)C(F)(F)F)nc3)cn12` (single isomer, unassigned) [Compound I-24] cannot be ordered by inhibition at 1 µM: < 30% for the first, < 30% for the second.

First: COC(F)(F)c1nnc2cnc(-c3ccc([C@@H]4CC4(F)F)cc3)cn12 (single isomer, unassigned) [Compound III-3]
Second: COC(F)(F)c1nnc2cnc(-c3ccc([C@H]4CC4(F)F)cc3)cn12 (single isomer, unassigned) [Compound III-4]
The inhibition at 1 µM of the first is higher: > 70% for the first, 30 to 70% for the second.

`COC(F)(F)c1nnc2cnc(-c3ccc([C@H]4CC4(F)F)cc3C)cn12` (single isomer, unassigned) [Compound III-7] and `COC(F)(F)c1nnc2cnc(-c3ccc([C@@H]4CC4(F)F)cc3C)cn12` (single isomer, unassigned) [Compound III-8] cannot be ordered by inhibition at 1 µM: > 70% for the first, > 70% for the second.

First: CCOC(F)(F)c1nnc2cnc(-c3ccc([C@@H](C)OCC(F)(F)F)cc3C)cn12 (single isomer, unassigned) [Compound III-9]
Second: CCOC(F)(F)c1nnc2cnc(-c3ccc([C@H](C)OCC(F)(F)F)cc3C)cn12 (single isomer, unassigned) [Compound III-10]
The inhibition at 1 µM of the first is higher: 30 to 70% for the first, < 30% for the second.

`FC(F)(F)c1nnc2cnc(-c3ccc(O[C@H](C4CC4)C(F)(F)F)nc3)cn12` (single isomer, unassigned) [Compound III-14] and `CCO[C@@H](C)c1nnc2cnc(-c3ccc(OC4(C(F)(F)F)CCC4)nc3)cn12` [Compound I-11, (S)-3-(1-ethoxyethyl)-6-(6-(1-(trifluoromethyl)cyclobutoxy)pyridin-3-yl)-[1,2,4]triazolo[4,3-a]pyrazine] fall in the same range of inhibition at 1 µM: 30 to 70% for the first, 30 to 70% for the second.

`COC(F)(F)c1nnc2cnc(-c3ccc([C@@H](C)OCC(F)(F)F)cc3)cn12` (single isomer, unassigned) [Compound III-17] and `COC(F)(F)c1nnc2cnc(-c3ccc([C@H](C)OCC(F)(F)F)cc3)cn12` (single isomer, unassigned) [Compound III-18] cannot be ordered by inhibition at 1 µM: < 30% for the first, < 30% for the second.

First: CCOC(F)(F)c1nnc2cnc(-c3ccc([C@@H](C)OCC(F)(F)F)cc3)cn12 (single isomer, unassigned) [Compound III-19]
Second: CCOC(F)(F)c1nnc2cnc(-c3ccc([C@H](C)OCC(F)(F)F)cc3)cn12 (single isomer, unassigned) [Compound III-20]
The inhibition at 1 µM of the first is lower: < 30% for the first, 30 to 70% for the second.

`CCO[C@@H](C)c1nnc2cnc(-c3cnc(OC4(C(F)(F)F)CCC4)c(F)c3)cn12` [Compound I-7, (S)-3-(1-ethoxyethyl)-6-(5-fluoro-6-(1-(trifluoromethyl)cyclobutoxy)pyridin-3-yl)-[1,2,4]triazolo[4,3-a]pyrazine] and `CCO[C@H](C)c1nnc2cnc(-c3cnc(OC4(C(F)(F)F)CCC4)c(F)c3)cn12` [Compound I-14, (R)-3-(1-ethoxyethyl)-6-(5-fluoro-6-(1-(trifluoromethyl)cyclobutoxy)pyridin-3-yl)-[1,2,4]triazolo[4,3-a]pyrazine] fall in the same range of inhibition at 1 µM: 30 to 70% for the first, 30 to 70% for the second.

`CCO[C@@H](C)c1nnc2cnc(-c3cnc(OC(C)(C)C(F)(F)F)c(F)c3)cn12` [Compound I-12, 6-[5-fluoro-6-(2,2,2-trifluoro-1,1-dimethyl-ethoxy)-3-pyridyl]-3-[(1S)-1-ethoxyethyl]-[1,2,4]triazolo[4,3-a]pyrazine] and `CCO[C@H](C)c1nnc2cnc(-c3cnc(OC(C)(C)C(F)(F)F)c(F)c3)cn12` [Compound I-13, (R)-3-(1-ethoxyethyl)-6-(5-fluoro-6-((1,1,1-trifluoro-2-methylpropan-2-yl)oxy)pyridin-3-yl)-[1,2,4]triazolo[4,3-a]pyrazine] fall in the same range of inhibition at 1 µM: 30 to 70% for the first, 30 to 70% for the second.

`CCO[C@H](C)c1nnc2cnc(-c3ccc(OC(C)(C)C(F)(F)F)nc3)cn12` [Compound I-19, (R)-3-(1-ethoxyethyl)-6-(6-((1,1,1-trifluoro-2-methylpropan-2-yl)oxy)pyridin-3-yl)-[1,2,4]triazolo[4,3-a]pyrazine] was tested, and the inhibition at 1 µM was 30 to 70%.
